A word on the Kd: it is the concentration at which binding is half-saturated.

The text below walks through data of publication PMC6592620 (Biochemistry, 2018).

The experiment has as its target phiYFP (yellow fluorescent protein from the jellyfish Phialidium sp.) (Phialidium sp. SL-2003, UniProt Q6RYS7). The experiment is described as follows: fluorescence titration, single site binding model.

Consider `I` [iodide], for which the Kd was 50 ± 2 mM.
